Data taken from US20100292229A1, “TRYPHOSTIN-ANALOGS FOR THE TREATMENT OF CELL PROLIFERATIVE DISEASES” (The Board of Regents of the University of Texas System, priority 2006, published 2010).

How the values were obtained:
c-myc = target: T1, c-myc (Homo sapiens, UniProt P01106); experiment: c-myc protein immunoblot in MM-1 cells; format: cell-based
T1 construct: endogenous in cells; host or cells: MM-1 cells
Description: Top: MM-1 cells were incubated with 5 μM Degrasyn for the interval noted before cell lysates were prepared and subjected to immunoblotting for c-myc and actin as a protein loading control.
Middle: MM-1 cells were treated with the indicated concentration of Degrasyn for 1 h before lysates were immunoblotted for c-myc and actin.
Bottom: MM-1 cells were treated as indicated before extraction of total RNA (TRIzol). RNA was resolved by agarose electrophoresis, transferred to a membrane and hybridized with a c-myc probe to determine the level of c-myc RNA in each sample. The ethidium bromide stained gel was photographed and 28S RNA content was detected as a measure of RNA content in each lane.
MM-1 cells were pretreated with protease/proteosome inhibitors (LLnL; LLnM; E-64d; MG132; PS341; Chloroquine; Ammonium Chloride; Cycloheximide) for 2 h before the addition of 5 μM Degrasyn or vehicle alone (DMSO as indicated) for an additional 2 h. Cell lysates were prepared and equal protein aliquots were subjected to immunoblotting for c-myc, Max (a c-myc binding partner) or actin as a protein loading control.
Pictured: MM-1 cells were treated with biotinylated Degrasyn (Bio-Deg) or Degrasyn (at the indicated concentration) for 1 h before analyzing effects on c-myc as described in FIG. 15.
(§1) Western Blot analysis. Cells were harvested, washed twice in cold 1×PBS and lysed in modified RIPA lysis buffer (150 mM NaCl, 1% NP-40, 0.5% Na-deoxycholate [DOC], 0.1% Na-dodecyl sulfate [SDS], 50 mM Tris-HCl (pH 7.5), 1 mM EDTA, 1 mM NaF, 2 mM Na-vanadate, with protease inhibitors (1 mM PMSF, 1 mM benzamidine, 10 μg/ml aprotinin, 10 μg/ml leupeptin) on ice for 30 min. The lysed cells were centrifuged at 13,000 rpm for 30 min and the supernatant collected. The protein concentration of the cell lysate was determined by the Bradford Protein Assay. Fifty to 60 μg of protein were resolved in a 10% SDS-PAGE, and transferred to a PVDF membrane. Western blotting was performed using specific primary antibodies Peroxidase-conjugated affiniPure anti-Mouse Anti-Rabbit secondary antibodies (Jackson Immunoresearch Laboratories, West Grove, Pa.). The proteins were visualized with ECL Plus reagents (Amersham Biosciences).

[1] = test system: p70 and p55 tyrosine phosphorylation; experiment: Phosphotyrosine (4G10) immunoblot in B-cell malignancy cell lines; format: cell-based
Description: MM-1 cells were pretreated with Degrasyn (at the concentration indicated) for 2 h before the addition of IL-6 for 15 min (as noted). Total cell lysates were prepared and equal protein aliquots were resolved by SDS-PAGE and immunoblotted for phosphotyrosine (4G10).
MM-1 and LP (lymphoma) cells were treated with Degrasyn (at the concentration indicated) for 2 h before cell lysates were prepared and equal protein aliquots were resolved by SDS-PAGE and immunoblotted for phosphotyrosine (4G10).
MM-1 and Mino (Mantle cell lymphoma) cells were treated with Degrasyns with different levels of anti-tumor efficacy (at the concentration indicated) for 2 h before cell lysates were prepared and equal protein aliquots were resolved by SDS-PAGE and immunoblotted for phosphotyrosine (4G10).
MM-1 cells were treated as indicated before analysis of cellular tyrosine phosphorylation by immunoblotting. Both p70 and p55 were tyrosine phosphorylated after 15 min of Degrasyn treatment which peaks in intensity after 1 h and remains higher than control levels after 4 h. These early changes may underlie or be a marker of Degrasyn activity in B-cell malignancies.
as §1

A375 melanoma tumors = A375 melanoma tumors in nude mice; format: in vivo, Swiss nude mice
Description: Ten Swiss nude mice (6-7 weeks of age) were injected subcutaneously (sc) with […] A375 melanoma cells on Day 0. When tumor nodules were palpable (Day 8), animals were divided into 2 groups. One group (Control) received 0.1 ml DMSO/PEG (1:1) intraperitoneally (ip) every other day […] for a total of 14 injections. The second group received 40 mg/kg Degrasyn ip beginning on Day 8 and repeated every other day for a total of 14 injections. Body weight and tumor volumes (by calipers) were measured every other day, the latter plotted vs. time. […] All animals were euthanized when tumor volumes (in the control group) achieved the maximal allowable burden (1.5 cm^3). The average +/−S.E.M. tumor volume from 5 animals per group is shown.
Anti-tumor studies. Swiss Nu/Nu mice were obtained from the breeding facility in the Department of Experimental Radiotherapy at M.D. Anderson Cancer Center. On Day 0, 200 μl of an A375 cell suspension (5×10^6 cells/ml) were injected (s.c.) into female Swiss nude mice 6-7 weeks of age. At the interval noted, compounds were injected (i.p. or oral gavage) into tumor bearing mice in a 0.1 ml suspension of DMSO/PEG300 (50/50). Degrasyn (40 mg/kg) was administrated on an every other day schedule, for 5 or more injections. […] Tumor volumes were measured every other day using calipers (Cel Associates, Houston, Tex.).

BCR-ABL (T315I) = target: T2, BCR-ABL (T315I) (Homo sapiens, UniProt P00519, T315I); experiment: pBCR-ABL and BCR-ABL immunoblot in BV-173R cells; format: cell-based; design: dose or concentration left out as unconfirmed; conditions: 1 h
T2 construct: endogenous in cells; host or cells: BV-173R; the other entry of the earlier key: BCR (P11274, Breakpoint cluster region protein)
Description: (§2) Actin was probed as protein loading control.
(§3) Western Blot analysis. […] Western blotting was performed using specific primary antibodies Peroxidase-conjugated affiniPure anti-Mouse Anti-Rabbit secondary antibodies (Jackson Immunoresearch Laboratories, West Grove, Pa.). The proteins were visualized with ECL Plus reagents (Amersham Biosciences).

Stat3 = experiment: IL-6 stimulated Stat3 activation (pY-Stat3) immunoblot in MM-1 cells; format: cell-based
Description: Left: MM-1 cells were pretreated with Degrasyn (5 μM WP1130) for 2 h before incubation with IL-6 (10 ng/ml) for 15 min. Cell lysates were prepared and assessed for Stat3 activation (pY-Stat3) and protein levels (Stat3) by immunoblotting. Actin was used as a control for protein loading.
Left: MM-1 cells were pretreated with buffer alone (−), AG490 (50 μM) or Degrasyn (5 μM) for 2 h before incubation with IL-6 for 15 min. Cell lysates were prepared and Jak2 was immunoprecipitated and immunoblotted with anti-Jak2 (top). Cell lysates (50 μg) were immunoblotted for pY-Stat3, Stat3 or actin.
as §1, with “Western blotting was performed using specific primary antibodies Peroxidase-conjugated affiniPure anti-Mouse Anti-Rabbit secondary antibodies (Jackson Immunoresearch Laboratories, West Grove, Pa.). The proteins were visualized with ECL Plus reagents (Amersham Biosciences).” left out

w/t BCR-ABL = target: T3, w/t BCR-ABL (Homo sapiens, UniProt P00519); experiment: pBCR-ABL and BCR-ABL immunoblot in BV-173 cells; format: cell-based; design: dose or concentration left out as unconfirmed; conditions: 1 h
T3 construct: BV-173, a lymphoid CML cell line expressing w/t BCR-ABL; endogenous in cells; host or cells: BV-173; the other entry of the earlier key: BCR (P11274, Breakpoint cluster region protein)
Description: as §2, §3

T1 sequence (P01106 16-454 limits assumed): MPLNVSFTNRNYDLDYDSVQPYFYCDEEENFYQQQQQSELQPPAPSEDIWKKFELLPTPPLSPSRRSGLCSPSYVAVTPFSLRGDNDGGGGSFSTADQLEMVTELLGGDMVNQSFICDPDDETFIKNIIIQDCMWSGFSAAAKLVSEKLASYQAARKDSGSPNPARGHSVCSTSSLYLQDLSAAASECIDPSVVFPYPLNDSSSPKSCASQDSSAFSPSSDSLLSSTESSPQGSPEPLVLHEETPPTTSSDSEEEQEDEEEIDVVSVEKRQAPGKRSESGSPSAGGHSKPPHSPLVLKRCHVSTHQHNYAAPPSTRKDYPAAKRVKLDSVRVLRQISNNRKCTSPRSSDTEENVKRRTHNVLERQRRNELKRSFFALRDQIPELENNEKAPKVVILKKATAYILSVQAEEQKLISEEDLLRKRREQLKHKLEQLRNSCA

For `CCC[C@H](NC(=O)/C(C#N)=C/c1cccc(Br)n1)c1ccccc1` [Degrasyn], the “c-myc protein content and c-myc RNA” value (c-myc) was “reduces c-myc protein content without effecting c-myc gene expression”, the “c-myc protein, time course” value (c-myc; 5 μM) was “caused a rapid reduction of c-myc protein” and the “c-myc protein, concentration dependence” value (c-myc; 1 h) was “caused a concentration dependent reduction in c-myc protein levels”. The c-myc protein levels (c-myc; FIG. 21, 1 h) was “reduced c-myc protein levels”, the “Tyrosine phosphorylated protein species (~70 kDa, ~55 kDa)” value ([1]; 2 h, MM-1, LP or Mino cells) was “increased” and the “Time at which p70 and p55 were tyrosine phosphorylated” value ([1]; MM-1) was 15 min. For the same compound, the “Time of peak intensity of p70 and p55 tyrosine phosphorylation” value ([1]; MM-1) was 1 h, the “Tyrosine phosphorylated protein species (~70 kDa, ~55 kDa), with IL-6” value ([1]; MM-1, 2 h pretreatment, IL-6 15 min) was “increased” and the Animal weight (A375 melanoma tumors; 40 mg/kg ip every other day) was “did not affect animal weight”. The “Growth of A375 tumors (tumor volume)” value (A375 melanoma tumors; 40 mg/kg ip every other day from Day 8, 14 injections) was “suppresses the growth of A375 tumors in vivo”, the “pBCR-ABL and BCR-ABL protein levels, BV-173R” value (BCR-ABL (T315I)) was “reduced BCR-ABL protein levels in both w/t and mutant BCR-ABL expressing cells” and the “Stat3 activation (pY-Stat3)” value (Stat3; 5 μM, 2 h pretreatment, IL-6 10 ng/ml 15 min) was “blocked Stat3 activation”. For the same compound, the “Stat3 activation compared with AG490” value (Stat3; Degrasyn 5 μM vs AG490 50 μM, 2 h, IL-6 15 min) was “reduces Stat3 activation more effectively than 10-fold greater concentrations of AG490” and the “pBCR-ABL and BCR-ABL protein levels, BV-173” value (w/t BCR-ABL) was “reduced BCR-ABL protein levels in both w/t and mutant BCR-ABL expressing cells”.
